Assay results from US7084268B1, “Carbapenem compound crystals and interjection preparations” (Eisai Co., Ltd., priority 1999, dated 2006).
Structures can show the parent of a compound that is named as a salt.

Key:
Format in all cases: physicochemical
[1] = Solubility in 62.5% (v/v) aqueous organic solvents, quantification in HPLC; conditions: 20° C., 30 minutes, monohydrochloride trihydrate
Procedure: The solubility of (+)-(1R,5S,6S)-6-[(R)-1-hydroxyethyl]-1-methyl-2-[(2S,4S)-2-[(3R)-pyrrolidine-3-yl-(R)-hydroxymethyl]pyrrolidine-4-yl]thio-1-carbapen-2-em-3-carboxylic acid monohydrochloride monohydrate and trihydrate in various aqueous organic solvents at a concentration of 62.5% (v/v) in water at 20° C. was determined by HPLC in the following manner.

[2] = Storage of crystals in bottles without caps at various relative humidity, with or without oxygen absorbent; conditions: 25° C., 2 weeks, listed as trihydrate crystals, monohydrochloride trihydrate
[3] = Effect of degasification of the air in a vial and/or replacement by nitrogen (storage of powdery charged preparations); conditions: 25 mg/vial, storage at 40° C. for 1 month
Procedure: As the monohydrate crystals, the powdery charged preparation of the novel carbapenem hydrochloride crystals (25 mg/vial) obtained in the method in Example 2-3 (replacement by nitrogen), the powdery charged preparation (25 mg/vial) subjected to replacement by oxygen in place of replacement by nitrogen in Example 2-3, and the powdery charged preparation (25 mg/vial) not subjected to replacement in Example 2-2 were stored at 60° C. for 5 days (N=3) and then measured for their color difference (ΔE), water content, powdery x-ray diffraction pattern, content of residual carbapenem and HPLC impurities. As the trihydrate crystals, the powdery charged preparation of the novel carbapenem hydrochloride crystals (25 mg/vial) obtained by the method (replacement by nitrogen) in Example 1-9 and the powdery charged preparation (25 mg/vial) not subjected to replacement in Example 1-8 were stored at 40° C. for 1 month and then measured for their color difference (ΔE), water content and content of residual carbapenem. The color difference was evaluated by a color difference meter (ZE-200, Nippondenso Co., Ltd.); the water content by a Karl-Fisher moisture meter (CA-05, Mitsubishi Kagaku Kogyo); the powdery X-ray diffraction under the method and conditions in Example 1-1 or 2-1; and the content of residual carbapenem and HPLC impurities by high performance liquid chromatography (Shimadzu Corporation). The color difference (ΔE) is a parameter indicative of a change in the color of the outward appearance of crystals, and its higher value indicates a greater coloration change than at an initial stage (just after production).

[4] = Storage of crystals in bottles without caps at various relative humidity, with or without oxygen absorbent; conditions: 25° C., 2 weeks; for water content (hygroscopicity): listed as trihydrate crystals, monohydrochloride trihydrate
Procedure: The novel carbapenem hydrochloride crystals were weighed in 25 mL wide-mouthed glass bottles (30 mg/bottle), and in the bottles without caps, the monohydrate was stored for 1 week at 40° C. at a relative humidity of 0%, 19.2%, 53% and 75%, and the trihydrate was stored for 2 weeks at 25° C. at a relative humidity of 11%, 33%, 51%, 75% and 93%. Then, the crystals were measured for their color difference (ΔE), water content, powdery X-ray diffraction pattern, and content of residual carbapenem. The monohydrate was also examined in the presence or absence of an oxygen absorbent (trade name: Ageless, produced by Mitsubishi Gas Chemical Co., Ltd.) during storage at each relative humidity. The oxygen absorbent makes oxygen-free conditions under which the preparation is placed.

[5] = Color difference after degasification of vial at various pressures and replacement by nitrogen; conditions: 80° C./1 week, n = 6
Procedure: As the monohydrate, the powdery charged preparations for injection of the novel carbapenem crystals (25 mg/vial) obtained by degasification of the air in the vial at 100, 10, 1, 0.1 and 0.01 hPa (hectopascal) respectively and subsequent replacement by nitrogen according to the method in Example 2-3 (replacement by nitrogen) were stored at 60° C. for 1 or 4 weeks (N=6) and then measured for their color difference (ΔE). The oxygen concentrations in the preparations in vials degasified at 100, 10, 1, 0.1, 0.01 hPa (hectopascal) were measured by an oxygen analyzer (RO-101, Iizima Kogyo). As the trihydrate, the powdery charged preparations of the novel carbapenem hydrochloride crystals (25 mg/vial) obtained in the method in Example 1-9 (replacement by nitrogen) were degasified in the same manner, stored at 80° C. for 1 week (N=6) and then measured for their color difference (ΔE). As the control, the powdery charged preparation of the novel carbapenem hydrochloride crystals (25 mg/vial) subjected to neither degasification nor replacement by nitrogen was used.

- solubility ([1]; 62.5% (v/v) 1-ethoxy-2-propanol in water): 3320 µg/mL
- solubility ([1]; 62.5% (v/v) 1-methoxy-2-propanol in water): 3370 µg/mL
- solubility ([1]; 62.5% (v/v) 2-ethoxyethanol in water): 4360 µg/mL
- solubility ([1]; 62.5% (v/v) 2-isopropoxyethanol in water): 4360 µg/mL
- solubility ([1]; 62.5% (v/v) 2-methoxyethanol in water): 6390 µg/mL
- solubility ([1]; 62.5% (v/v) 3-methoxy-3-methyl-1-butanol in water): 4860 µg/mL
- solubility ([1]; 62.5% (v/v) 3-methoxybutanol in water): 3240 µg/mL
- solubility ([1]; 62.5% (v/v) IPA (isopropyl alcohol) in water): 4740 µg/mL
- solubility ([1]; 62.5% (v/v) acetonitrile in water): 12990 µg/mL
- solubility ([1]; 62.5% (v/v) diethylene glycol monoethyl ether in water): 2680 µg/mL
- solubility ([1]; 62.5% (v/v) diethylene glycol monomethyl ether in water): 2410 µg/mL
- solubility ([1]; 62.5% (v/v) dimethyl acetamide in water): 4530 µg/mL
- solubility ([1]; 62.5% (v/v) dimethyl ether in water): 1440 µg/mL
- solubility ([1]; 62.5% (v/v) dimethyl formamide in water): 7310 µg/mL
- solubility ([1]; 62.5% (v/v) dimethyl sulfoxide in water): 11840 µg/mL
- solubility ([1]; 62.5% (v/v) ethanol in water): 6320 µg/mL
- solubility ([1]; 62.5% (v/v) methanol in water): 14380 µg/mL
- solubility ([1]; 62.5% (v/v) n-propanol in water): 10460 µg/mL
- solubility ([1]; 62.5% (v/v) t-butanol in water): 6060 µg/mL
- solubility ([1]; 62.5% (v/v) tetrahydrofuran in water): 5290 µg/mL
- solubility ([1]; 62.5% (v/v) triethylene glycol monomethyl ether in water): 2470 µg/mL
- water content (hygroscopicity) ([2]; relative humidity 11%): 11.0%
- water content (hygroscopicity) ([2]; relative humidity 75%): 11.1%
- water content (hygroscopicity) ([2]; relative humidity 93%): 11.4%
- color difference (ΔE) ([3]; control (air)): 2.78
- content of residual carbapenem compound ([3]; control (air)): 101.0%
- water content ([3]; control (air)): 12.0%
- color difference (ΔE) ([3]; gas for replacement nitrogen): 0.00
- content of residual carbapenem compound ([3]; gas for replacement nitrogen): 100.2%
- water content ([3]; gas for replacement nitrogen): 11.3%
- powdery X-ray diffraction pattern (hygroscopicity) ([4]; relative humidity 11%): no change
- powdery X-ray diffraction pattern (hygroscopicity) ([4]; relative humidity 33%): no change
- water content (hygroscopicity) ([4]; relative humidity 33%): 11.1%
- powdery X-ray diffraction pattern (hygroscopicity) ([4]; relative humidity 51%): no change
- water content (hygroscopicity) ([4]; relative humidity 51%): 11.1%
- powdery X-ray diffraction pattern (hygroscopicity) ([4]; relative humidity 75%): no change
- powdery X-ray diffraction pattern (hygroscopicity) ([4]; relative humidity 93%): no change
- color difference (ΔE) ([5]; control: neither degasification nor replacement by nitrogen): 10.06
- color difference (ΔE) ([5]; vial degasified at 1 hPa, replaced by nitrogen): 3.62
- color difference (ΔE) ([5]; vial degasified at 10 hPa, replaced by nitrogen): 3.92
- color difference (ΔE) ([5]; vial degasified at 100 hPa, replaced by nitrogen): 4.90
SMILES: C[C@@H](O)[C@H]1C(=O)N2C(C(=O)O)=C(S[C@@H]3CN[C@H]([C@H](O)[C@@H]4CCNC4)C3)[C@H](C)[C@H]12 [trihydrate, (+)-(1R,5S,6S)-6-[(R)-1-Hydroxyethyl]-1-methyl-2-[(2S,4S)-2-[(3R)-pyrrolidine-3-yl-(R)-hydroxymethyl]pyrrolidine-4-yl]thio-1-carbapen-2-em-3-carboxylic acid monohydrochloride trihydrate]
- solubility ([1]; 62.5% (v/v) 1-acetoxy-2-methyl ethane in water): 2850 µg/mL
- solubility ([1]; 62.5% (v/v) 2-butoxyethanol in water): 11850 µg/mL
